Data: patent US10500209B2, “Quinazolinones as bromodomain inhibitors” (Zenith Epigenetics Ltd., priority 2013, dated 2019)

Columns and labels:
hApoA-1 mRNA = assay: Up-regulation of hApoA-1 mRNA transcription in Huh7 cells; type: cell-based, human; design: key: Active: Compounds with an EC170 value less than 30 μM were deemed to be active; details: 48 h treatment
Method: In this example, ApoA-I mRNA in tissue culture cells was quantitated to measure the transcriptional up-regulation of ApoA-I when treated with a compound of the present disclosure.
Huh7 cells (2.5×10^5 per well) were plated in a 96-well plate using 100 μL DMEM per well, (Gibco DMEM supplemented with penicillin/streptomycin and 10% FBS), 24 h before the addition of the compound of interest. After 48 h treatment, the spent media was removed from the Huh-7 cells and placed on ice (for immediate use) or at −80° C. (for future use) with the “LDH cytotoxicity assay Kit II” from Abcam. The cells remaining in the plate were rinsed with 100 μL PBS.
Then 85 μL of cell lysis solution was added to each well and incubated for 5-10 min at room temperature, to allow for complete cell lysis and detachment. mRNA was then prepared using the “mRNA Catcher PLUS plate” from Life Technologies, according to the protocol supplied. After the last wash, as much wash buffer as possible was aspirated without allowing the wells to dry. Elution Buffer (E3, 80 μL) was then added to each well. mRNA was then eluted by incubating the mRNA Catcher PLUS plate with Elution Buffer for 5 min at 68° C., and then 1 min at 4° C. Catcher plates with mRNA eluted were kept on ice for use or stored at −80° C.
The eluted mRNA isolated was then used in a one-step real-time PCR reaction, using components of the Ultra Sense Kit together with Life Technologies primer-probe mixes. Real-time PCR data was analyzed, using the Ct values, to determine the fold induction of each unknown sample, relative to the control (that is, relative to the control for each independent DMSO concentration).
Compounds with an EC170 value less than 30 μM were deemed to be active.

human AML MV-4-11 cells = assay: Inhibition of cell proliferation in cancer cell lines (CellTiter Aqueous One); type: cell-based; design: key: Active: Compounds with an IC50 value less than 30 μM were deemed to be active.; Not Active: Compounds with an IC50 value less than 30 μM were deemed to be active; details: 72 h
How it was run: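 Exponentially growing MV-4-11 cells (5×10^4/well) were treated immediately with two-fold dilutions of compound from 30 μM to 0.2 μM, in triplicate, for 72 h at 37° C, 5% CO2. Viability was measured by MTS absorbance at 490 nm after 3–4 h. Proliferation relative to DMSO after blank correction gave IC50.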

hIL-6 mRNA = assay: Inhibition of hIL-6 mRNA transcription in LPS-stimulated U937 macrophages; type: cell-based, human; design: key: Active: Compounds with an IC50 value less than 30 μM were deemed to be active.; Not Active: Compounds with an IC50 value less than 30 μM were deemed to be active; details: U937 cells differentiated with PMA, LPS stimulation, 3 h
Method: In this example, hIL-6 mRNA in tissue culture cells was quantitated to measure the transcriptional inhibition of hIL-6 when treated with a compound of the present disclosure.
A human leukemic monocyte lymphoma cell line (U937) was plated (3.2×10^4 cells per well) in a 96-well plate in 100 μL RPMI-1640 containing 10% FBS and penicillin/streptomycin, and differentiated into macrophages for 3 days in 60 ng/mL PMA ([…]) at 37° C. in 5% CO2 prior to the addition of the compound of interest. The cells were pretreated for 1 h with the test compound prior to stimulation with 1 ug/mL lipopolysaccharide from Escherichia coli. The cells were incubated at 37° C. for 3 h before the cells were harvested. At time of harvest, the spent media was removed from the cells and the cells were rinsed in 200 μL PBS. Cell lysis solution (70 μL) was added the cells in each well and incubated for 5-10 min at room temperature, to allow for complete cell lysis and detachment. mRNA was then prepared using the “mRNA Catcher PLUS plate” (Invitrogen), according to the protocol supplied. After the last wash, as much wash buffer as possible was aspirated without allowing the wells to dry. Elution buffer (E3, 70 μL) was then added to each well. mRNA was then eluted by incubating the mRNA Catcher PLUS plate with Elution Buffer for 5 min at 68° C. and then immediately placing the plate on ice.
The eluted mRNA isolated was then used in a one-step quantitative real-time PCR reaction, using components of the Ultra Sense Kit together with Applied Biosystems primer-probe mixes. Real-time PCR data was analyzed, normalizing the Ct values for hIL-6 to an internal control, prior to determining the fold induction of each unknown sample, relative to the control.

[1] = molecular target: T1, Brd4 bromodomain 1 (BRD4(1)) (Homo sapiens, UniProt O60885); assay: Inhibition of tetra-acetylated histone H4 binding to BET bromodomains (TR-FRET); design: key: Active: Compounds with an IC50 value less than 30 μM were deemed to be active.; Not Active: Compounds with an IC50 value less than 30 μM were deemed to be active; details: first bromodomain of Brd4, tetra-acetylated histone H4 peptide
T1 construct: made in house; host or cells: E. coli BL21(DE3)
How it was run: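 N-terminally His-tagged bromodomain (200 nM) from E. coli was mixed with biotinylated tetra-acetylated histone H4 peptide (25-50 nM), Eu-streptavidin and XL665 anti-His, plus compound, in HEPES pH 7.4 buffer with 0.2% DMSO. After 2 h at room temperature, the 665/620 nm TR-FRET decrease gave IC50 from dose-response curves.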

c-myc in MV4-11 cells = assay: Inhibition of c-myc expression in cancer cell lines (mRNA, real-time PCR); type: cell-based, Human; design: key: Active: Compounds with an IC50 value less than 30 μM were deemed to be active.; Not Active: Compounds with an IC50 value less than 30 μM were deemed to be active; details: 3 h
Method: MV4-11 cells (2.5×10^4 cells) were plated in 96 well U-bottom plates with test compound or DMSO (0.1%), and incubated for 3 h at 37° C. Cells were then harvested by centrifugation, lysed, and mRNA was isolated using the mRNA catcher plus kit (Invitrogen). Reverse transcription of the mRNA and duplex amplification of the c-myc and cyclophilin cDNAs was performed using the RNA Ultrasense kit (Invitrogen) and a ViiA7 real-time PCR machine (Applied Biosystems). IC50 values were determined from a dose response curve.

Compound | melting point [°C] | ApoA-1 activity (EC170 < 30 μM) (hApoA-1 mRNA) | Cell Proliferation activity (IC50 < 30 μM) (human AML MV-4-11 cells) | IL-6 activity (IC50 < 30 μM) (hIL-6 mRNA) | FRET activity BRD4(1) [1] | c-myc activity (IC50 < 30 μM) (c-myc in MV4-11 cells)
COc1ccc(-c2nc3cc(OC)cc(OC)c3c(=O)[nH]2)c(NC2CCN(C)CC2)c1 [Example 1, 5,7-Dimethoxy-2-(4-methoxy-2-((1-methylpiperidin-4-yl)amino)phenyl)-quinazolin-4(3H)-one] | 252 to 253 | Active | Active | Active | Active | Active
COc1ccc(-c2nc3cc(OC)cc(OC)c3c(=O)[nH]2)c(NCCCNC(C)C)c1 [Example 20, 2-(2-((3-(Isopropylamino)propyl)amino)-4-methoxyphenyl)-5,7-dimethoxyquinazolin-4(3H)-one] | 208 to 210 | Active | Active | Active | Active | Active
COc1cc(OC)c2c(=O)[nH]c(-c3ncccc3NC3CCN(C(=O)C(C)C)CC3)nc2c1 [Example 36, 2-(-((1-Isobutyrylpiperidin-4-yl)amino)pyridin-2-yl)-5,7-dimethoxyquinazolin-4(3H)-one] | – | Active | Active | Active | Active | Active
COc1cc(OC)c2c(=O)[nH]c(-c3ncccc3NCCCNC(=O)C(C)C)nc2c1 [Example 57, N-(3-((2-(5,7-Dimethoxy-4-oxo-3,4-dihydroquinazolin-2-yl)pyridin-3-yl)amino)propyl)isobutyramide] | 230 to 231 | – | Not Active | Active | Active | Active
COc1ccc(-c2nc3cc(OC)cc(OC)c3c(=O)[nH]2)c(NCC2CCN(C)C2)c1 (stereo not shown) [Example 7, 5,7-Dimethoxy-2-(4-methoxy-2-(((1-methylpyrrolidin-3-yl)methyl)amino)phenyl)-quinazolin-4(3H)-one] | 233 to 235 | – | Active | Active | Active | Active
COC(=O)C(=O)N1CCC(Nc2cccnc2-c2nc3cc(OC)cc(OC)c3c(=O)[nH]2)CC1 [Example 55, Methyl-2-(4-((2-(5,7-dimethoxy-4-oxo-3,4-dihydroquinazolin-2-yl)pyridin-3-yl)amino)piperidin-1-yl)-2-oxoacetate] | 165 to 166 | – | Active | Active | Active | Active
COc1cc(OC)c2c(=O)[nH]c(-c3ncccc3NC3CCN(C(=O)C(F)(F)F)CC3)nc2c1 [Example 46, 5,7-Dimethoxy-2-(3-((1-(2,2,2-trifluoroacetyl)piperidin-4-yl)amino)pyridin-2-yl)quinazolin-4(3H)-one] | 218 to 219 | – | Active | Active | Active | Active
COc1ccc(-c2nc3cc(OC)cc(OC)c3c(=O)[nH]2)c(NCCNC(C)C)c1 [Example 8, 2-(2-((2-(Isopropylamino)ethyl)amino)-4-methoxyphenyl)-5,7-dimethoxyquinazolin-4(3H)-one] | 262 to 264 | – | Active | Active | Active | Active
COc1cc(OC)c2c(=O)[nH]c(-c3ncccc3NC3CCN(C(=O)C(C)(C)C)CC3)nc2c1 [Example 48, 5,7-Dimethoxy-2-(3-((1-pivaloylpiperidin-4-yl)amino)pyridin-2-yl)quinazolin-4(3H)-one] | 209 to 210 | – | Active | Active | Active | Active
COc1ccc(-c2nc3cc(OC)cc(OC)c3c(=O)[nH]2)c(NCCN2CCN(C)CC2)c1 [Example 25, 5,7-Dimethoxy-2-(4-methoxy-2-((2-(4-methylpiperazin-1-yl)ethyl)amino)phenyl)-quinazolin-4(3H)-one] | 230 to 231 | Active | – | Active | Active | –
COc1cc(OC)c2c(=O)[nH]c(-c3ncccc3NC3CCN(C(C)C)CC3)nc2c1 [Example 18, 2-(3-((1-Isopropylpiperidin-4-yl)amino)pyridin-2-yl)-5,7-dimethoxyquinazolin-4(3H)-one] | 170 to 172 | – | Active | Active | Active | Active
COc1ccc(-c2nc3cc(OC)cc(OC)c3c(=O)[nH]2)c(NC2CCN(C(C)C)CC2)c1 [Example 3, 2-(2-((1-isopropylpiperidin-4-yl)amino)-4-methoxyphenyl)-5,7-dimethoxyquinazolin-4(3H)-one] | 248 to 250 | – | Active | Active | Active | Active
COc1cnc(-c2nc3cc(OC)cc(OC)c3c(=O)[nH]2)c(NC2CCN(C(=O)C(C)C)CC2)c1 [Example 32, 2-(3-((1-Isobutyrylpiperidin-4-yl)amino)-5-methoxypyridin-2-yl)-5,7-dimethoxyquinazolin-4(3H)-one] | 192 to 193 | Active | Active | Active | Active | Active
